Test results from patent publication US20250368647A1, “NITROGEN CONTAINING CONDENSED 2,3-DIHYDROQUINAZOLINONE COMPOUNDS AS NAV1.8 INHIBITORS” (GLAXOSMITHKLINE INTELLECTUAL PROPERTY DEVELOPMENT LIMITED, priority 2022, published 2025).
Where a name gives a salt, the structure may show the parent alone.

biological target: human Nav1.8 (Homo sapiens (Human), UniProt Q9Y5Y9); test: QPatch 48 HTX voltage-clamp electrophysiology, half inactivation state (V1/2) protocol, HEK293-Nav1.8 cells; format: cell-based; details: HEK293 cells expressing human Nav1.8, human Navβ1 and human TREK1, P2 current
Sequence (Q9Y5Y9 whole entry): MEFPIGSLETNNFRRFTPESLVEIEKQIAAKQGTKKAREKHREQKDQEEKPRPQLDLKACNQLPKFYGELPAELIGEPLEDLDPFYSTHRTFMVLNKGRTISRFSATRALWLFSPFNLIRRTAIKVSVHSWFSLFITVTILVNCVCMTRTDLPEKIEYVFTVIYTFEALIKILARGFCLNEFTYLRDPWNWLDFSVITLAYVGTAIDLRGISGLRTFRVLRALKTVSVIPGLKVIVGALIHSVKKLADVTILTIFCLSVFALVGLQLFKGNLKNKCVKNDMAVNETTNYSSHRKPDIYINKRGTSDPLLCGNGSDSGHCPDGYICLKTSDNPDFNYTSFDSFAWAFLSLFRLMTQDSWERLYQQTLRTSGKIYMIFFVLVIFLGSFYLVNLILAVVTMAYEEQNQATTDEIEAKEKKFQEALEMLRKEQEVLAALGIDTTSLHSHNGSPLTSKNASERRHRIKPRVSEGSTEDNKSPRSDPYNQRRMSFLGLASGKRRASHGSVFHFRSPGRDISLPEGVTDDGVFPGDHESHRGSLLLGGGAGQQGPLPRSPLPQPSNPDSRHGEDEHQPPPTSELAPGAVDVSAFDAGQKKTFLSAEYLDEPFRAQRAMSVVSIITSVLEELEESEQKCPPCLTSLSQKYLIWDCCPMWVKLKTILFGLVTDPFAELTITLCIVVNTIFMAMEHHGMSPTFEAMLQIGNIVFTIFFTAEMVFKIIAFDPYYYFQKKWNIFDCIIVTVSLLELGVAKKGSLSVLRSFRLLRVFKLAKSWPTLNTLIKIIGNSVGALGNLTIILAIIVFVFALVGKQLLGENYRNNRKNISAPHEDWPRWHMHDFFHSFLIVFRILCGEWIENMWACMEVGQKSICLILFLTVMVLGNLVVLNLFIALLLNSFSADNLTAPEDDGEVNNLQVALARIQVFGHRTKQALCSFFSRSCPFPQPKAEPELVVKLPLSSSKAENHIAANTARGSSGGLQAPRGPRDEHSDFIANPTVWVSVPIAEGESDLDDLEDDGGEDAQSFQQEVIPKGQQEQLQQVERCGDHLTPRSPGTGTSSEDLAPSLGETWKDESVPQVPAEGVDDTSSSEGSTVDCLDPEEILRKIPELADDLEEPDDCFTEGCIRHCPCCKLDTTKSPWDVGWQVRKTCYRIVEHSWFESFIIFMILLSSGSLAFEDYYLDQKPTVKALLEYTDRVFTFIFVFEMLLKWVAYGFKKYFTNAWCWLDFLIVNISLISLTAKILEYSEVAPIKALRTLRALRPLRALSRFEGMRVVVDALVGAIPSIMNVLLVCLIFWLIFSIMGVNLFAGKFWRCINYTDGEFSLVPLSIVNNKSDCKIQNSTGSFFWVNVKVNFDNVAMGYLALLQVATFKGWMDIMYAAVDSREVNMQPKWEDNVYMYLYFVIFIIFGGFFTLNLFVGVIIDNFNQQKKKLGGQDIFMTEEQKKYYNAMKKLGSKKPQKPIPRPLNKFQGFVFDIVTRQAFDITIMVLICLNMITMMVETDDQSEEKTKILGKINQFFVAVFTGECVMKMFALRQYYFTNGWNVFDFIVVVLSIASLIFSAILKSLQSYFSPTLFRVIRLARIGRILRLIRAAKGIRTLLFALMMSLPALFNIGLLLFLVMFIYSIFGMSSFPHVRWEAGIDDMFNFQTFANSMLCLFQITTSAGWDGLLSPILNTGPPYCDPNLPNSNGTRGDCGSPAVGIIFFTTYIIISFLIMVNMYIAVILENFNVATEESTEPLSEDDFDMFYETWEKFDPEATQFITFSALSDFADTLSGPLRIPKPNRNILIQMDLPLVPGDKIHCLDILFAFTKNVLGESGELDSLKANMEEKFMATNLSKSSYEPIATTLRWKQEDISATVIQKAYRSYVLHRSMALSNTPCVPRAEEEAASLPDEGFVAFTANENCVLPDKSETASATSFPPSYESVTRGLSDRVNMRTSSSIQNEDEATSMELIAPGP
Sequence (Q07699 19-218 partner): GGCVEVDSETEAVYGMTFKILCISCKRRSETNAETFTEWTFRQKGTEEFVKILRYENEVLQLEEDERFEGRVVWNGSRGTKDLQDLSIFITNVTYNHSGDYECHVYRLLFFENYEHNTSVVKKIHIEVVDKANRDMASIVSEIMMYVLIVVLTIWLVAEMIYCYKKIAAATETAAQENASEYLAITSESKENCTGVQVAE
Outline: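 HEK293 cells co-expressing Navβ1 and TREK1 were voltage-clamped from −100 mV: a 20 ms step to 0 mV, 8 s inactivation at −46 mV, 20 ms at −100 mV, then a 20 ms P2 test step to 0 mV, repeated every 15 s. P2 current was normalized to vehicle and full block, corrected for run-down, and Hill-fitted (4–6 concentrations) for IC50.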

SMILES	Nav1.8, pIC50
CC1NCCc2[nH]c(=O)ccc2N2CN(c3ccc(C(F)(F)F)cc3C2=O)c2ccc(F)cc21 (racemic) [Example 114, 8-Fluoro-10-methyl-2-(trifluoromethyl)-10,11,12,13-tetrahydro-19H-5,18-methanodibenzo[c,f]-pyrido[3,2-j][1,5,9]triazacyclotridecine-15,19(14H)-dione hydrochloride]	6.8
O=C1c2c(ccc(C(F)(F)F)c2F)N2CN1c1ccc(=O)[nH]c1CCNCc1cc(F)ccc12 [Example 45, 1,8-Difluoro-2-(trifluoromethyl)-10,11,12,13-tetrahydro-19H-5,18-methanodibenzo[c,f]pyrido[3,2-j][1,5,9]triazacyclotridecine-15,19(14H)-dione]	6.9
Cl.O=C1c2cc(F)c(F)cc2N2CN1c1ccc(=O)[nH]c1CCNCc1c(OC(F)F)cccc12 [Example 75, 9-(Difluoromethoxy)-2,3-difluoro-10,11,12,13-tetrahydro-19H-5,18-methanodibenzo[c,f]pyrido[3,2-j][1,5,9]triazacyclotridecine-15,19(14H)-dione hydrochloride]	5.4
Cl.N#Cc1c(F)ccc2c1CNCCc1[nH]c(=O)ccc1N1CN2c2cc(C(F)(F)F)c(F)cc2C1=O [Example 82, 2,8-Difluoro-15,19-dioxo-3-(trifluoromethyl)-10,11,12,13,14,15-hexahydro-19H-5,18-methanodibenzo[c,f]pyrido[3,2-j][1,5,9]triazacyclotridecine-9-carbonitrile hydrochloride]	7.9
Cl.O=C1c2cc(F)c(C(F)(F)F)cc2N2CN1c1ccc(=O)[nH]c1CCCNCc1c2ccc(F)c1F [Example 108, 2^6,3^3,3^4-trifluoro-2^7-(trifluoromethyl)-1^1,1^2,2^1,2^2,2^3,2^4-hexahydro-5-aza-2(3,1)-quinazolina-1(5,6)-pyridina-3(1,2)-benzenacyclooctaphane-1^2,2^4-dione hydrochloride]	7.6
Cl.O=C1c2cc(F)c(F)cc2N2CN1c1ccc(=O)[nH]c1CCNCc1cc(OC(F)(F)F)ccc12 [Example 86, 2,3-Difluoro-8-(trifluoromethoxy)-10,11,12,13-tetrahydro-19H-5,18-methanodibenzo[c,f]pyrido[3,2-j][1,5,9]triazacyclotridecine-15,19(14H)-dione hydrochloride]	7.5
Cl.O=C1c2cc(F)c(C(F)(F)F)cc2N2CN1c1ccc(=O)[nH]c1CCNCc1c(F)cccc12 [Example 80, 2,9-Difluoro-3-(trifluoromethyl)-10,11,12,13-tetrahydro-19H-5,18-methanodibenzo-[c,f]pyrido[3,2-j][1,5,9]triazacyclotridecine-15,19(14H)-dione hydrochloride]	7.7
CN1CCCc2cc(F)ccc2N2CN(C(=O)c3cc(C(F)(F)F)ccc32)c2ccc(=O)[nH]c21 [Example 30, 8-Fluoro-13-methyl-2-(trifluoromethyl)-10,11,12,13-tetrahydro-19H-5,18-methanodibenzo[f,i]pyrido[2,3,-b][1,4,8]triazacyclotridecine-15,19(14H)-dione]	6.9
O=C1c2cc(C(F)(F)F)ccc2N2CN1c1ccc(=O)[nH]c1NCCCCc1cc(F)ccc12 [Example 11, 3^4-Fluoro-2^6-(trifluoromethyl)-1^1,1^2,2^1,2^2,2^3,2^4-hexahydro-8-aza-2(3,1)-quinazolina-1(5,6)-pyridina-3(1,2)-benzenacyclooctaphane-1^2,2^4-dione]	7.3
Cl.N#Cc1cc2c(cc1F)C(=O)N1CN2c2ccc(F)c(Cl)c2CNCCCc2[nH]c(=O)ccc21 [Example 110, 3^3-Chloro-2^6,3^4-difluoro-1^2,2^4-dioxo-1^1,1^2,2^1,2^2,2^3 2^4-hexahydro-5-aza-2(3,1)-quinazolina-1(5,6)-pyridina-3(1,2)-benzenacyclooctaphane-2^7-carbonitrile hydrochloride]	6.8
O=C1c2cc(C(F)(F)F)ccc2N2CN1c1ccc(=O)[nH]c1NCCCc1c2ccc(F)c1F [Example 37, 8,9-Difluoro-2-(trifluoromethyl)-10,11,12,13-tetrahydro-19H-5,18-methanodibenzo[f,i]dipyrido[2,3,-b][1,4,8]triazacyclotridecine-15,19(14H)-dione]	7.7

Results, then the compound that gave them:

Nav1.8, pIC50	SMILES
7.6	O=C1c2cc(C(F)(F)F)ncc2N2CN1c1ccc(=O)[nH]c1CCCCCc1cc(F)ccc12 [Example 21, 3^4-Fluoro-2^6-(trifluoromethyl)-1^1,1^2,2^1,2^2,2^3,2^4-hexahydro-2(3,1)-pyrido[3,4-d]pyrimidina-1(5,6)-pyridina-3(1,2)-benzenacyclooctaphane-1^2,2^4-dione]
7.6	O=C1c2ccc(C(F)(F)F)nc2N2CN1c1ccc(=O)[nH]c1CCCCCc1cc(F)ccc12 [Example 22, 3^4-Fluoro-2^7-(trifluoromethyl)-1^1,1^2,2^1,2^2,2^3,2^4-hexahydro-2(3,1)-pyrido[2,3-d]pyrimidina-1(5,6)-pyridina-3(1,2)-benzenacyclooctaphane-1^2,2^4-dione]
8	Cl.O=C1c2cc(F)c(Br)cc2N2CN1c1ccc(=O)[nH]c1CCNCc1cc(F)ccc12 [Example 63, 3-Bromo-2,8-difluoro-10,11,12,13-tetrahydro-19H-5,18-methanodibenzo[c,f]pyrido[3,2-j][1,5,9]triazacyclotridecine-15,19(14H)-dione hydrochloride]
7.7	Cc1c(F)ccc2c1CNCCc1[nH]c(=O)ccc1N1CN2c2cc(F)c(F)cc2C1=O.Cl [Example 68, 2,3,8-Trifluoro-9-methyl-10,11,12,13-tetrahydro-19H-5,18-methanodibenzo[c,f]pyrido[3,2-j][1,5,9]triazacyclotridecine-15,19(14H)-dione hydrochloride]
8.4	O=C1c2ccc(C(F)(F)F)cc2N2CN1c1ccc(=O)[nH]c1CCCCCc1cc(F)ccc12 [Example 8, 3^4-Fluoro-2^7-(trifluoromethyl)-1^1,1^2,2^1,2^2,2^3,2^4-hexahydro-2(3,1)-quinazolina-1(5,6)-pyridina-3(1,2)-benzenacyclooctaphane-1^2,2^4-dione]
6.9	C[C@H]1NCCCc2[nH]c(=O)ccc2N2CN(c3cc(C(F)(F)F)c(F)cc3C2=O)c2ccc(F)cc21 [Example 136, (4R)-2^6,3^4-Difluoro-4-methyl-2^7-(trifluoromethyl)-1^1,1^2,2^1,2^2,2^3,2^4-hexahydro-5-aza-2(3,1)-quinazolina-1(5,6)-pyridina-3(1,2)-benzenacyclooctaphane-1^2,2^4-dione]
8.2	Cl.O=C1c2cc(F)c(F)cc2N2CN1c1ccc(=O)[nH]c1CCNCc1c2ccc(F)c1Cl [Example 64, 9-Chloro-2,3,8-trifluoro-10,11,12,13-tetrahydro-19H-5,18-methanodibenzo[c,f]pyrido[3,2-i][1,5,9]triazacyclotridecine-15,19(14H)-dione hydrochloride]
7.1	Cl.O=C1c2cc(F)c(C(F)(F)F)cc2N2CN1c1ccc(=O)[nH]c1CCNCCc1cc(F)ccc12 [Example 111, 2^6,3^4-Difluoro-2^7-(trifluoromethyl)-1^1,1^2,2^1,2^2,2^3,2^4-hexahydro-6-aza-2(3,1)-quinazolina-1(5,6)-pyridina-3(1,2)-benzenacyclooctaphane-1^2,2^4-dione hydrochloride]
8.4	O=C1c2cc(F)c(C(F)(F)F)cc2N2CN1c1ccc(=O)[nH]c1NCCCc1cc(F)ccc12 [Example 32, 2,8-Difluoro-3-(trifluoromethyl)-10,11,12,13-tetrahydro-19H-5,18-methanodibenzo[f,i]pyrido[2,3,-b][1,4,8]triazacyclotridecine-15,19(14H)-dione]
7.3	Cl.O=C1c2cc(F)c(C(F)(F)F)cc2N2CN1c1ccc(=O)[nH]c1CCCNCc1cc(F)ccc12 [Example 107, 2^6,3^4-Difluoro-2^7-(trifluoromethyl)-1^1,1^2,2^1,2^2,2^3,2^4-hexahydro-5-aza-2(3,1)-quinazolina-1(5,6)-pyridina-3(1,2)-benzenacyclooctaphane-1^2,2^4-dione hydrochloride]
6.9	CN1CCCc2[nH]c(=O)ccc2N2CN(c3cc(F)c(F)cc3C2=O)c2ccc(F)c(Cl)c2C1.Cl [Example 113, 3^3-Chloro-2^6,2^7,3^4-trifluoro-5-methyl-1^1,1^2,2^1,2^2,2^3,2^4-hexahydro-5-aza-2(3,1)-quinazolina-1(5,6)-pyridina-3(1,2)-benzenacyclooctaphane-1^2,2^4-dione hydrochloride]
7	CC1NCCc2[nH]c(=O)ccc2N2CN(c3cc(Cl)c(F)cc3C2=O)c2ccc(F)cc21 (racemic) [Example 120, 3-Chloro-2,8-difluoro-10-methyl-10,11,12,13-tetrahydro-19H-5,18-methanodibenzo[c,f]pyrido-[3,2-j][1,5,9]triazacyclotridecine-15,19(14H)-dione hydrochloride]
6.8	N#Cc1c(F)ccc2c1CNCCc1[nH]c(=O)ccc1N1CN2c2cc(F)c(F)cc2C1=O [Example 83, 2,3,8-Trifluoro-15,19-dioxo-10,11,12,13,14,15-hexahydro-19H-5,18-methano-dibenzo[c,f]pyrido[3,2-j][1,5,9]triazacyclotridecine-9-carbonitrile]
7.8	Cl.O=C1c2cc(Cl)c(C(F)(F)F)cc2N2CN1c1ccc(=O)[nH]c1CCNCc1cc(F)ccc12 [Example 59, 2-Chloro-8-fluoro-3-(trifluoromethyl)-10,11,12,13-tetrahydro-19H-5,18-methanodibenzo[c,f]pyrido[3,2-j][1,5,9]triazacyclotridecine-15,19(14H)-dione hydrochloride]
5.9	C[C@@H]1NCCc2[nH]c(=O)ccc2N2CN(c3cc(Cl)c(F)cc3C2=O)c2ccc(F)cc21 [Example 122, (10S)-3-chloro-2,8-difluoro-10-methyl-10,11,12,13-tetrahydro-19H-5,18-methanodibenzo[c,f]pyrido[3,2-j][1,5,9]triazacyclotridecine-15,19(14H)-dione]
